Reference: BindingDB's records for doi:10.3109/14756366.2011.578393 (Gitam University, 2012)

Target: Carbonic anhydrase 2 (Homo sapiens, UniProt P00918)
Assay: Enzyme Inhibition Assay
Conditions: pH 7.4; 25 °C
Description: Saturated CO2 solutions in water at 25°C were used as substrate. Stock solutions of inhibitors were prepared at a concentration of 10 mM (in dimethyl sulphoxidewater 1:1, v/v) and dilutions up to 1 mM done with the assay buffer mentioned above. […] Inhibitor and enzyme solutions were preincubated together for 10 min at room temperature prior to assay, in order to allow for the formation of the E-I complex.

IC50 [µM] | SMILES
2000 | O=C(/C=C/C=C/c1ccc2c(c1)OCO2)N1CCCCC1 [1-[(2E,4E)-5-(1,3-benzodioxol-5-yl)penta-2,4-dienoyl]piperidine]
2000 | Cn1c(=O)c2c(ncn2C)n(C)c1=O
